The target in the assay is T1, human farnesoid X receptor (Homo sapiens, UniProt Q96RI1).
T1 construct: CMX-farnesoid X receptor (full length human farnesoid X receptor); expressed in transfected cells; host or cells: CV-1 African Green Monkey Kidney cells
T1 sequence (Q96RI1 1-472 isoform Q96RI1-2): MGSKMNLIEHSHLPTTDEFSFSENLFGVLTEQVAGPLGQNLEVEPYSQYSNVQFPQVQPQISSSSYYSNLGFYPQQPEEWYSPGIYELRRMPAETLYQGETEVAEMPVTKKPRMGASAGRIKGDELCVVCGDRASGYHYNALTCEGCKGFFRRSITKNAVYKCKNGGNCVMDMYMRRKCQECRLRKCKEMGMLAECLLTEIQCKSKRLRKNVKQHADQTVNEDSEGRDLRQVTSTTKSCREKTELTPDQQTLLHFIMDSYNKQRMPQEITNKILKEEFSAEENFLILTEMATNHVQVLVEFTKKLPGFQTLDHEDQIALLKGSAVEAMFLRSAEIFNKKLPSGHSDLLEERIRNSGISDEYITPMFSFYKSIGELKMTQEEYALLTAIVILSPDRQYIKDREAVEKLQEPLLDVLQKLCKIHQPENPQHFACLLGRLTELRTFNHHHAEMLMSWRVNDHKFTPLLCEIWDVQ
T1 sequence (P19793 1-462 partner): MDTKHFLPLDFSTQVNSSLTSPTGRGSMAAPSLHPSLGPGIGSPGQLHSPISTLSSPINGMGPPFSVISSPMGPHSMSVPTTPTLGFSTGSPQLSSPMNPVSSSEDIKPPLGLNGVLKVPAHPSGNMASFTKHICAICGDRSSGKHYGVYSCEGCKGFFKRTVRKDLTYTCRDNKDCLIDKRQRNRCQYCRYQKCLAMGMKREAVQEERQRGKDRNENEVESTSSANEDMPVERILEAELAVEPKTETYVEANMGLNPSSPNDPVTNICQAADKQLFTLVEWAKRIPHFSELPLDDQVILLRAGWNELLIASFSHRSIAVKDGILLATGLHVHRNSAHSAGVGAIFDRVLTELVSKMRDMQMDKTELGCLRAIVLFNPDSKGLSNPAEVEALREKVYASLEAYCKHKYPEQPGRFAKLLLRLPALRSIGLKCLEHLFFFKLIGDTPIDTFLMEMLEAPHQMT
Description: FXR in vitro assays (farnesoid X receptor/ECREx7 co-transfection assay, TR-FRET assay), Table I. Type of assay: cell-based. To be noted: for Emax: read-out: % Efficacy. The protocol:
The basic co-transfection protocol for measuring the farnesoid X receptor activity is as follows. CV-1 African Green Monkey Kidney cells were plated 24 hours before transfection to achieve approximately 70-80 percent confluency. […] The assay was allowed to continue for an additional 18-20 hours, after which the cells were lysed, with lysis buffer (1% triton X 100, 10% glycerol, 5 mM Dithiothreitol, 1 mM EGTA, 25 mM Tricine, pH 7.8) and the luciferase activity measured in the presence of Luciferase assay buffer (0.73 mM ATP, 22.3 mm Tricine, 0.11 mM EGTA, 0.55 mM Luciferin, 0.15 mM Coenzyme A, 0.5 mM HEPES, 10 mM Magnesium sulphatc) on a standard luminometer plate reader (PE Biosystems, NorthStar Reader), using recommended operating instructions and conditions.
The dose response curves are generated from an 8 point curve with concentrations differing by ½ LOG units. Each point represents the average of 4 wells of data from a 384 well plate. A curve for the data is generated by using the equation:
Y=Bottom+(Top−Bottom)/(1+10̂((Log EC50−X)*HillSlope))
The EC50/IC50 is therefore defined as the concentration at which an agonist or antagonist elicits a response that is half way between the Top (maximum) and Bottom (baseline) values. The EC50/IC50 values represented are the averages of at least 3 independent experiments.

Where [1] appears, read: agonist activity, one or more of the in vitro assays, read-out: EC50.

Each structure is given as a SMILES string. Read-outs that look alike come from different tables or passages of the source.

The EC50 is the concentration that produces a half-maximal response. With `CC1(C)CN(C(=O)c2ccc(F)c(F)c2)C=C(C(=O)OCCOCc2ccccc2)c2[nH]c3ccccc3c21` [Example 195, 2-[(phenylmethyl)oxy]ethyl 3-[(3,4-difluorophenyl)carbonyl]-1,1-dimethyl-1,2,3,6-tetrahydroazepino[4,5-b]indole-5-carboxylate], the Emax is greater than 100%. Under setting [1], the EC50 was 100 to 1000 nM.
The corresponding values for `Cc1ccccc1C(=O)N1C=C(C(=O)OC(C)C)c2[nH]c3ccccc3c2C(C)(C)C1` [Example 68, 1-methylethyl 1,1-dimethyl-3-[(2-methylphenyl)carbonyl]-1,2,3,6-tetrahydroazepino[4,5-b]indole-5-carboxylate] are greater than 100% and 10 to 100 nM.
The like results for `COCCOc1ccc2c3c([nH]c2c1)C(C(=O)OC(C)C)=CN(C(=O)c1ccc(F)c(F)c1)CC3(C)C` [Example 105, 1-methylethyl 3-[(3,4-difluorophenyl)carbonyl]-1,1-dimethyl-8-{[2-(methyloxy)ethyl]oxy}-1,2,3,6-tetrahydroazepino[4,5-b]indole-5-carboxylate] were, in that order, 80 to 100% and 100 to 1000 nM.
The corresponding values for `CC(C)OC(=O)C1=CN(C(=O)c2ccc(Cl)cc2Cl)CC(C)(C)c2c1[nH]c1ccccc21` [Example 143, 1-methylethyl 3-[(2,4-dichlorophenyl)carbonyl]-1,1-dimethyl-1,2,3,6-tetrahydroazepino[4,5-b]indole-5-carboxylate] are greater than 100% and 10 to 100 nM.
On to `CC1(C)CN(C(=O)c2ccc(F)c(F)c2)C=C(C(=O)OCC(O)CO)c2[nH]c3ccccc3c21` (stereo not shown) [Example 124, 2,3-dihydroxypropyl 3-[(3,4-difluorophenyl)carbonyl]-1,1-dimethyl-1,2,3,6-tetrahydroazepino[4,5-b]indole-5-carboxylate], for which the Emax was greater than 100%. Moreover, the half-maximal effective concentration (EC50) under setting [1] lay within 10 to 100 nM.
Turning to `COc1cccc(C(=O)N2C=C(C(=O)OC(C)C)c3[nH]c4ccccc4c3C(C)(C)C2)c1` [Example 88, 1-methylethyl 1,1-dimethyl-3-{[3-(methyloxy)phenyl]carbonyl}-1,2,3,6-tetrahydroazepino[4,5-b]indole-5-carboxylate], the Emax is greater than 100%. In addition, the EC50 under setting [1] lay in the range of 10 to 100 nM.
With `CC(C)OC(=O)C1=CN(C(=O)NC2CCCC2)CC(C)(C)c2c1[nH]c1ccccc21` [Example 44, 1-methylethyl 3-[(cyclopentylamino)carbonyl]-1,1-dimethyl-1,2,3,6-tetrahydroazepino[4,5-b]indole-5-carboxylate], the Emax was greater than 100%. For the same molecule, the EC50 under setting [1] was in the range of 10 to 100 nM.
Consider `CC(C)OC(=O)C1=CN(C(=O)c2ccc(F)c(F)c2)CC(C)(C)c2c1[nH]c1ccc(OCc3ccccc3)cc21` [Example 115, 1-methylethyl 3-[(3,4-difluorophenyl)carbonyl]-1,1-dimethyl-9-[(phenylmethyl)oxy]-1,2,3,6-tetrahydroazepino[4,5-b]indole-5-carboxylate], for which the Emax is greater than 100%. Besides, the EC50 under setting [1] was 10 to 100 nM.
The corresponding values for `CC(=O)C1=CN(C(=O)c2ccc(F)c(F)c2)CC(C)(C)c2c1[nH]c1ccccc21` [Example 106, 1-{3-[(3,4-difluorophenyl)carbonyl]-1,1-dimethyl-1,2,3,6-tetrahydroazepino[4,5-b]indol-5-yl}ethanone] are greater than 100% and 100 to 1000 nM.
Turning to `CNC(=O)Oc1ccc2c3c([nH]c2c1)C(C(=O)OC(C)C)=CN(C(=O)c1ccc(F)c(F)c1)CC3(C)C` [Example 102, 1-methylethyl 3-[(3,4-difluorophenyl)carbonyl]-1,1-dimethyl-8-{[(methylamino)carbonyl]oxy}-1,2,3,6-tetrahydroazepino[4,5-b]indole-5-carboxylate], the EC50 was in the range of 10 to 100 nM and the Emax is less than 40%.
For the molecule `CC(C)OC(=O)C1=CN(C(=O)NCCN2CCOCC2)CC(C)(C)c2c1[nH]c1ccccc21` [Example 22, 1-methylethyl 1,1-dimethyl-3-{[(2-morpholin-4-ylethyl)amino]carbonyl}-1,2,3,6-tetrahydroazepino[4,5-b]indole-5-carboxylate], the EC50 under setting [1] was in the range of 1000 to 10000 nM.
Consider `CC1(C)CN(C(=O)c2ccc(F)c(F)c2)C=C(C(=O)OC[C@H](O)CO)c2[nH]c3ccccc3c21` [Example 129, (2R)-2,3-dihydroxypropyl 3-[(3,4-difluorophenyl)carbonyl]-1,1-dimethyl-1,2,3,6-tetrahydroazepino[4,5-b]indole-5-carboxylate], for which the Emax was greater than 100%. Also, the concentration giving a half-maximal response (EC50) under setting [1] was in the range of 100 to 1000 nM.
Regarding `CCN(CC)CCCOc1ccc2c3c([nH]c2c1)C(C(=O)OC(C)C)=CN(C(=O)c1ccc(F)c(F)c1)CC3(C)C` [Example 104], the Emax lay within 60 to 80%. Under setting [1], the EC50 is 100 to 1000 nM.
With `CC1(C)CN(C(=O)c2ccc(F)c(F)c2)C=C(C(=O)OC(CF)CF)c2[nH]c3ccccc3c21` [Example 136, 2-fluoro-1-(fluoromethyl)ethyl 3-[(3,4-difluorophenyl)carbonyl]-1,1-dimethyl-1,2,3,6-tetrahydroazepino[4,5-b]indole-5-carboxylate], the Emax is greater than 100%. The EC50 under setting [1] lay in the range of 1 to 10 nM.
Regarding `CC(C)OC(=O)C1=CN(C(=O)c2ccc(-n3cccn3)cc2)CC(C)(C)c2c1[nH]c1ccccc21` [Example 141, 1-methylethyl 1,1-dimethyl-3-{[4-(1H-pyrazol-1-yl)phenyl]carbonyl}-1,2,3,6-tetrahydroazepino[4,5-b]indole-5-carboxylate], the Emax was greater than 100%. Under setting [1], the EC50 is 10 to 100 nM.
The corresponding values for `CC(COC(=O)c1ccc(F)c(F)c1)OC(=O)C1=CN(C(=O)c2ccc(F)c(F)c2)CC(C)(C)c2c1[nH]c1ccccc21` (stereo not shown) [Example 194, 2-{[(3,4-difluorophenyl)carbonyl]oxy}-1-methylethyl 3-[(3,4-difluorophenyl)carbonyl]-1,1-dimethyl-1,2,3,6-tetrahydroazepino[4,5-b]indole-5-carboxylate] are greater than 100% and 10 to 100 nM.
`Cc1cc(C(=O)N2C=C(C(=O)OC(C)C)c3[nH]c4ccccc4c3C(C)(C)C2)no1` [Example 109, 1-methylethyl 1,1-dimethyl-3-[(5-methylisoxazol-3-yl)carbonyl]-1,2,3,6-tetrahydroazepino[4,5-b]indole-5-carboxylate]: the Emax was greater than 100%. Under setting [1], the EC50 was in the range of 100 to 1000 nM.
With `CC(C)OC(=O)C1=CN(C(=O)N2CCCN(Cc3ccccc3)CC2)CC(C)(C)c2c1[nH]c1ccccc21` [Example 59, 1-methylethyl 1,1-dimethyl-3-{[4-(phenylmethyl)-1,4-diazepan-1-yl]carbonyl}-1,2,3,6-tetrahydroazepino [4,5-b]indole-5-carboxylate], the Emax was greater than 100%. Moreover, the half-maximal effective concentration (EC50) under setting [1] lay within 10 to 100 nM.
`CCN(CC)CCCNC(=O)Oc1ccc2c3c([nH]c2c1)C(C(=O)OC(C)C)=CN(C(=O)c1ccc(F)c(F)c1)CC3(C)C` [Example 112, 1-methylethyl 8-[({[3-(diethylamino)propyl]amino}carbonyl)oxy]-3-[(3,4-difluorophenyl)carbonyl]-1,1-dimethyl-1,2,3,6-tetrahydroazepino[4,5-b]indole-5-carboxylate]: the EC50 is 1000 to 10000 nM and the Emax is greater than 100%.
For `COC(=O)C1=CN(C(=O)c2ccc(F)c(F)c2)CC(C)(C)c2c1[nH]c1ccccc21` [Example 123, methyl 3-[(3,4-difluorophenyl)carbonyl]-1,1-dimethyl-1,2,3,6-tetrahydroazepino[4,5-b]indole-5-carboxylate], the Emax is greater than 100%. In addition, under setting [1], the EC50 was 100 to 1000 nM.
For `CC(C)OC(=O)C1=CN(C(=O)c2cccc(C3CCNCC3)c2)CC(C)(C)c2c1[nH]c1ccccc21` [Example 95, 1-methylethyl 1,1-dimethyl-3-[(3-piperidin-4-ylphenyl)carbonyl]-1,2,3,6-tetrahydroazepino[4,5-b]indole-5-carboxylate], the EC50 under setting [1] was greater than 10000 nM.

These data come from patent publication US20090203577A1 (EXELIXIS, INC., priority 2005, published 2009).
